US7053107B2, “Indazole compounds and pharmaceutical compositions for inhibiting protein kinases, and methods for their use” (Agouron Pharmaceuticals, Inc., priority 2002, dated 2006)

Biological target: T1, phosphorylated VEGF-R2Δ50 (Homo sapiens, UniProt P35968, DEL940-989/E990V)
T1 construct: VEGF-R2Δ50 contains residues 806–939 and 990–1171; made in house; host or cells: baculovirus/insect cell system
Test: VEGF-R2 coupled spectrophotometric (FLVK-P) assay, phosphorylated construct
Type: biochemical
Conditions: Ki (nM)
Text: This construct determines the ability of a test compound to inhibit tyrosine kinase activity. A construct (VEGF-R2Δ50) of the cytosolic domain of human vascular endothelial growth factor receptor 2 (VEGF-R2) lacking the 50 central residues of the 68 residues of the kinase insert domain was expressed in a baculovirus/insect cell system. Of the 1356 residues of full-length VEGF-R2, VEGF-R2Δ50 contains residues 806–939 and 990–1171, and also one point mutation (E99OV) within the kinase insert domain relative to wild-type VEGF-R2. Autophosphorylation of the purified construct was performed by incubation of the enzyme at a concentration of 4 μM in the presence of 3 mM ATP and 40 mM MgCl2 in 100 mM HEPES, pH 7.5, containing 5% glycerol and 5 mM DTT, at 4° C. for 2 h. […] See Parast et al., Biochemistry, 37,16788–16801 (1998).
The production of ADP from ATP that accompanies phosphoryl transfer was coupled to oxidation of NADH using phosphoenolpyruvate (PEP) and a system having pyruvate kinase (PK) and lactic dehydrogenase (LDH). The oxidation of NADH was monitored by following the decrease of absorbance at 340 nm (e340=6.22 cm^−1 mM^−1) using a Beckman DU 650 spectrophotometer. […] Ki values were determined by measuring enzyme activity in the presence of varying concentrations of test compounds. The data were analyzed using Enzyme Kinetic and Kaleidagraph software.

T1 sequence (P35968 with tags, fused parts or gaps DEL940-989/E990V limits assumed): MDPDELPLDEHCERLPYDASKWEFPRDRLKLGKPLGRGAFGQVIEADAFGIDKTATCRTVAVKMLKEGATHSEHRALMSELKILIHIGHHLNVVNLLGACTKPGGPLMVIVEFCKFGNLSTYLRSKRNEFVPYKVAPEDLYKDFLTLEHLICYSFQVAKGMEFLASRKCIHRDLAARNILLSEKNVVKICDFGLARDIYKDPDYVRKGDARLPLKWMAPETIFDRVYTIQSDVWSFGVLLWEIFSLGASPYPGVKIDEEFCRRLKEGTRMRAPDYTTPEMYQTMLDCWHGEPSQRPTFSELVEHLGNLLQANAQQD

- Ki: 6.07 nM
Compound: Cc1cc(C)nc(/C=C/c2n[nH]c3cc(Nc4ccccc4C(=O)NCC#CCO)ccc23)c1 [Example 10, 2-{3-[(E)-2-(4,6-Dimethyl-pyridin-2-yl)-vinyl]-1H-indazol-6-ylamino}-N-(4-hydroxy-but-2-ynyl)-benzamide]
